Source: paper PMC4307180, “Overcoming myelosuppression due to synthetic lethal toxicity for FLT3-targeted acute myeloid leukemia therapy” (eLife, 2014)
“Also recorded” adds a separate entry of the source. Like-named read-outs stand apart in the source and are kept apart here.

Key:
[1] = system: AML patients; parameters: method as in Cortes et al., 2013; details: monotherapy, Phase II trial; ref Cortes et al., 2013; cited from earlier work
[2] = system: KIT phosphorylation; parameters: method as in Griswold et al., 2004; details: ref Griswold et al., 2004; cited from earlier work
[3] = system: Ba/F3 FLT3 ITD + A848P; experiment: Ba/F3 cell viability, FLT3 ITD + A848P; assay type: cell-based; details: Mus musculus, Ba/F3, 48 hr, ± SEM
Protocol: (§1) Stable Ba/F3 lines were generated by retroviral spinfection with the appropriate mutated plasmid as previously described ([Smith et al., 2012]).
(§2) Exponentially growing cells (5 × 10^3 cells per well) were plated in each well of a 96-well plate with 0.1 ml of RPMI 1640 + 10% (vol/vol) FCS containing the appropriate concentration of drug in triplicate, and cell viability was assessed after 48 hr as previously described ([Smith et al., 2012]). […] Log10-scale transformation of ratios, followed by conditional formatting using xcel spreadsheet software yielded the colored diagrams shown.
(§3) Mutations isolated in the screen were engineered into pMSCVpuroFLT3–ITD by QuikChange mutagenesis (Stratagene, La Jolla, CA) as previously described ([Smith et al., 2012]).

[4] = target: T1, p-KIT in HMC1.1 cells (Homo sapiens, UniProt P10721, V560G); experiment: Immunoblot of p-KIT in HMC1.1; assay type: cell-based; details: immunoblot, 90-min incubation
T1 construct: endogenous in cells; host or cells: HMC1.1
T1 sequence (P10721 26-976 V560G): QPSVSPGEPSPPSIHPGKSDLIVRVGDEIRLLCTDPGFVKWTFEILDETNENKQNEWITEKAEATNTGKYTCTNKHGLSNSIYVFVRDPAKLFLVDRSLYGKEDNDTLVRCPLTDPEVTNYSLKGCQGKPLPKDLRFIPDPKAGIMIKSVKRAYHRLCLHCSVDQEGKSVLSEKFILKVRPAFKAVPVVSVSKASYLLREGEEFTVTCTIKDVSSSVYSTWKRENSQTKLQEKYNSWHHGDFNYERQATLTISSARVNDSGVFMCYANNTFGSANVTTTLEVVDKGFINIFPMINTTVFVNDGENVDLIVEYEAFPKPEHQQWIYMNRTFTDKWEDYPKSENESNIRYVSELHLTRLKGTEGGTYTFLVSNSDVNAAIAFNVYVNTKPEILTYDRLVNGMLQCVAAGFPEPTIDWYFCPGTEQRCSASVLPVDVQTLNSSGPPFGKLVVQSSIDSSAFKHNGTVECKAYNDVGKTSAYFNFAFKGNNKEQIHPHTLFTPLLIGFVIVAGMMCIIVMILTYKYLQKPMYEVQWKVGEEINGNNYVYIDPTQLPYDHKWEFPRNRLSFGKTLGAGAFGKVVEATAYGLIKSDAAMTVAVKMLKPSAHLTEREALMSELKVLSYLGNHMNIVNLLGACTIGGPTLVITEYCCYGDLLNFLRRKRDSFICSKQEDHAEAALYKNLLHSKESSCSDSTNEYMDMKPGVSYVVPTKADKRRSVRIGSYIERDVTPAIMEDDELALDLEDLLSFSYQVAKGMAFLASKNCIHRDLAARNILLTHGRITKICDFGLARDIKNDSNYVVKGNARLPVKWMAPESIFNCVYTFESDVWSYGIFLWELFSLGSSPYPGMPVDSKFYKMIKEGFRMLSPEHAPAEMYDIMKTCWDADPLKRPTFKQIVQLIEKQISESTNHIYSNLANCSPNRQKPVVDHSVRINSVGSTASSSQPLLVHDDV

[5] = system: mpo+ myeloid cells in zebrafish embryos; experiment: Zebrafish normal myelopoiesis, mpo WISH in posterior blood island; assay type: in vivo, Danio rerio (zebrafish); details: 10 μM, 6 to 30 hpf, read at 30 hpf, vs DMSO
Protocol: (§4) Figure 4. […] (N–P) Three categories of mpo transcription (N, normal; O, intermediate; P, severe) were defined based on the WISH results (three experiments). […] Scale bar equals 500 μm. Blue arrows indicate the pericardial edema, green arrows indicate tail shortening and curving, and red arrows indicate the FLT3-ITD AML mpo+ myeloid cells expansion. […] For all experiments: Zebrafish embryos were collected and kept in standard E3 medium at 28°C. Different concentrations of either drug were added to the E3 medium from 6 hr post fertilization (hpf) to 3 days post fertilization (dpf). Embryos treated with DMSO or 10 μM drug from 6 to 30 hpf were collected for mpo whole mount in situ hybridization (WISH) analysis. […] plasmid DNA containing FLT3/ITD sequence was microinjected into one-cell stage embryos, and the uninjected embryos were used as control. FLT3/ITD-injected embryos were treated with DMSO or 10 μM drug from 6 to 30 hpf.
(§5) Wild-type (WT) zebrafish were maintained under standard conditions, and embryos were staged as described ([He et al., 2014]). The study was approved by the Committee of the Use of Live Animals for Teaching and Research in The University of Hong Kong.

[6] = system: normal bone marrow (BM) and stimulated peripheral blood (SPB) hematopoietic progenitors; experiment: Colony-forming assay, normal BM and stimulated peripheral blood; assay type: cell-based, human
From the text: (§6) Primary AML blood samples and/or marrow aspirates were obtained on an IRB-approved protocol at the University of California, San Francisco. Informed consent was obtained in accordance with the Declaration of Helsinki. Mononuclear cells were purified by density centrifugation (Ficoll–Paque Plus, GE Healthsciences) before cryopreservation in 10% (vol/vol) DMSO or FCS (primary ITD and D835-mutant assays, Figure 3A–C) or immediate use in assays (Normal BM and SPB, Figure 3D–F). Normal BM and stimulated peripheral blood (SPB) samples were collected from donors at the UCSF oncology/hematology division. Cells were then suspended in MethoCult methylcellulose (Stem Cell Technologies, product no. H4435 Enriched, Canada) in 15-ml Falcon tubes, vigorously vortexed, bubbles settled over 10 min. Triplicates then plated via blunt-nosed syringe (1.1 ml each) into 3-cm dishes, avoiding bubble generation, and each dish placed in a larger 10-cm dish with water trough in an incubator (37°C, 5% CO2) for 13–14 days. Colonies were counted individually using traditional microscopy. CFU and BFU types reported separately (CFU-GEMM colonies counted as one of each). Results shown for FLT3 ITD primary blasts (Figure 3B) are a combination of leukemic blast colonies and BFU colonies.

[7] = system: zebrafish embryos; experiment: Zebrafish embryonic development / WT morphology; assay type: in vivo, Danio rerio (zebrafish); details: 3 dpf, drug from 6 hpf
Protocol: as §4, §5

[8] = system: Ba/F3 Parental + IL3; experiment: Ba/F3 cell viability, Parental + IL3; assay type: cell-based; details: Mus musculus, BaF3; Ba/F3, 48 hr, ± SEM
Protocol: as §1, §2

[9] = system: Ba/F3 FLT3 ITD + D835F; experiment: Ba/F3 cell viability, FLT3 ITD + D835F; assay type: cell-based; details: Mus musculus, Ba/F3, 48 hr, ± SEM
Protocol: as §1, §2, §3

[10] = system: HMC1.1 cells; experiment: Caspase-3 activation (apoptosis), HMC1.1; assay type: cell-based, human; details: 48 hr, up to 2,500 nM
Protocol: Cells were fixed with 4% (vol/vol) paraformaldehyde (Electron Microscopy Sciences) and permeabilized with 100% (vol/vol) methanol (Electron Microscopy Sciences, Hatfield, PA) followed by staining with a FITC-conjugated antiactive caspase-3 antibody (BD Pharmingen, San Jose, CA). Cells were run on a BD LSRFortessa cell analyzer, and data were analyzed using FlowJo (Tree Star Inc., Ashland, OR). Percentage of live cells was determined by negative staining for activated caspase-3 (see Figure 2B,C).

[11] = system: HMC1.1 cells (KIT V560G); experiment: Cell proliferation/viability assay, HMC1.1; assay type: cell-based, human; details: Homo sapiens; Kit V560 G, 48 hr, ± SEM
Protocol: as §2

[12] = system: FLT3/ITD-injected zebrafish embryos; experiment: Zebrafish FLT3/ITD-induced mpo+ myeloid cell expansion; assay type: in vivo, Danio rerio (zebrafish); details: 10 μM, 6 to 30 hpf, read at 30 hpf
Protocol: as §4, §5

[13] = system: primary patient FLT3-ITD+ AML circulating blasts; experiment: Colony-forming assay, primary patient FLT3-ITD+ AML blasts; assay type: cell-based, human; details: at 1,000 nM; ca. 1,200 CFUs in DMSO plates
From the text: as §6, with “each).” for “each). Results shown for FLT3 ITD primary blasts (Figure 3B) are a combination of leukemic blast colonies and BFU colonies.”

[14] = system: primary patient FLT3 D835 AML circulating blasts; experiment: Colony-forming assay, primary patient FLT3-D835 AML blasts; assay type: cell-based, human; details: at 1,000 nM; ca. 120 for DMSO plates
From the text: as §6, with “each).” for “each). Results shown for FLT3 ITD primary blasts (Figure 3B) are a combination of leukemic blast colonies and BFU colonies.”

[15] = system: AML patients; parameters: method as in Strati et al., 2014; details: ref Strati et al., 2014, cited from earlier work
[16] = system: MV4;11 cells (FLT3-ITD homozygous); experiment: Cell proliferation/viability assay, MV4;11; assay type: cell-based; details: Homo sapiens, 48 hr, ± SEM
Protocol: as §2

[17] = target: CSF1R (Homo sapiens, UniProt P07333); parameters: purchased Reaction Biology Corporation (Malvern, PA); method as in Lopez et al., 2013; details: at 1 µM, panel of 319 kinases; ref Lopez et al., 2013; cited from earlier work
Chain of CSF1R (P07333 20-972): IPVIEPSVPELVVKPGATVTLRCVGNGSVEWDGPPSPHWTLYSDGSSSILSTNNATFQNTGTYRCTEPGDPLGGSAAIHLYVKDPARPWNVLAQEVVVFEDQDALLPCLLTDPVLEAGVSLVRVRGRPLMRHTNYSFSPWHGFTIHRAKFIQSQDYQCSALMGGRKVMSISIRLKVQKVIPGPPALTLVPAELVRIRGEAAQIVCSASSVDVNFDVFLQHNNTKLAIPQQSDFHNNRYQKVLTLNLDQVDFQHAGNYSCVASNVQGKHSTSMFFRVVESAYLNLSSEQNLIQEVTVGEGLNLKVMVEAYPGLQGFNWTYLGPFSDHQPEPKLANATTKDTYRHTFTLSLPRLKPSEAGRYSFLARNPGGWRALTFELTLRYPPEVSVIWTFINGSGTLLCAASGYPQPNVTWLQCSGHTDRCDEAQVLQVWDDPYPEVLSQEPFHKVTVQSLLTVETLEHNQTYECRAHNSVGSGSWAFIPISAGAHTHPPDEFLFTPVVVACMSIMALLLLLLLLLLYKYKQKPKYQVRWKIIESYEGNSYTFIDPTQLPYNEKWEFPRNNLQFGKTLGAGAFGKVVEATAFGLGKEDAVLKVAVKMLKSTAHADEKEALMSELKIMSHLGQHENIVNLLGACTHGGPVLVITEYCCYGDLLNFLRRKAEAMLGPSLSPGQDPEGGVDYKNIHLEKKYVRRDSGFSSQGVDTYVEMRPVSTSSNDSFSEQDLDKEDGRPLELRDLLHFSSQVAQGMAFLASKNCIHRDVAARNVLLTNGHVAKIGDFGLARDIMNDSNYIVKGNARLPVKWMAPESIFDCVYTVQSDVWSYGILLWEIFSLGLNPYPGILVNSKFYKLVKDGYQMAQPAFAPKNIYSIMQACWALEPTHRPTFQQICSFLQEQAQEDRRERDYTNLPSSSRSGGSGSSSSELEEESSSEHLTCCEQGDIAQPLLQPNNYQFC

[18] = target: T2, FLT3 (Homo sapiens, UniProt P36888); parameters: purchased Reaction Biology Corporation (Malvern, PA); method as in Lopez et al., 2013; details: at 1 µM, panel of 319 kinases; ref Lopez et al., 2013; cited from earlier work
T2 sequence (P36888 27-993): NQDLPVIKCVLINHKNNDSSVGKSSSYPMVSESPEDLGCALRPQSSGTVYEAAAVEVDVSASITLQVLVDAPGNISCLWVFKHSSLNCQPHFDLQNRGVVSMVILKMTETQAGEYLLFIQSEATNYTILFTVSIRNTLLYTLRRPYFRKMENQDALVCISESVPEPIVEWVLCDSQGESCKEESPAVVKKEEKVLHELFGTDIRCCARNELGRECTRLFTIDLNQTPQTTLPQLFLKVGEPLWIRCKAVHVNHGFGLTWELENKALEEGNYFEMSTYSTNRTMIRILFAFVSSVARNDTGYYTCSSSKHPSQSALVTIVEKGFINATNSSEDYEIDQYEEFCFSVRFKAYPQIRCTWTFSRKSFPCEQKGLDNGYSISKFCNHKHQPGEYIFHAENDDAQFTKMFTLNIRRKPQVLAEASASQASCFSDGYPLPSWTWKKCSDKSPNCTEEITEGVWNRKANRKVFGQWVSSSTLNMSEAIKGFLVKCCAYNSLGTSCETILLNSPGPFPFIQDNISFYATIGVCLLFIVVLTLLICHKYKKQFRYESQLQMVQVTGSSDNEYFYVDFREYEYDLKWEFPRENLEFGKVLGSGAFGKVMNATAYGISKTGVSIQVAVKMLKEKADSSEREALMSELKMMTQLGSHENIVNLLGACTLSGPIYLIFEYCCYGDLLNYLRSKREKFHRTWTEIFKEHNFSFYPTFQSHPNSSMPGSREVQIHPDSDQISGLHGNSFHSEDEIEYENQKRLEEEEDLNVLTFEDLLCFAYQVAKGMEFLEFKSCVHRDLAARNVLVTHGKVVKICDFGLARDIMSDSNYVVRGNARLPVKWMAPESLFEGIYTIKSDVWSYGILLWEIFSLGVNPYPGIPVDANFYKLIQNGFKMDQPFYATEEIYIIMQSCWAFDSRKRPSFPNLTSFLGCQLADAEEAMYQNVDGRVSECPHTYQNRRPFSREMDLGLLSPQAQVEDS

[19] = target: KIT (Homo sapiens, UniProt P10721); parameters: purchased Reaction Biology Corporation (Malvern, PA); method as in Lopez et al., 2013; details: at 1 µM, panel of 319 kinases; ref Lopez et al., 2013; cited from earlier work
Chain of KIT (P10721 26-976): as the sequence (P10721 26-976 V560G) above, with G535V counted along it

[20] = target: PDGFRβ (Homo sapiens, UniProt P09619); parameters: purchased Reaction Biology Corporation (Malvern, PA); method as in Lopez et al., 2013; details: at 1 µM, panel of 319 kinases; ref Lopez et al., 2013; cited from earlier work
Chain of PDGFRβ (P09619 33-1106): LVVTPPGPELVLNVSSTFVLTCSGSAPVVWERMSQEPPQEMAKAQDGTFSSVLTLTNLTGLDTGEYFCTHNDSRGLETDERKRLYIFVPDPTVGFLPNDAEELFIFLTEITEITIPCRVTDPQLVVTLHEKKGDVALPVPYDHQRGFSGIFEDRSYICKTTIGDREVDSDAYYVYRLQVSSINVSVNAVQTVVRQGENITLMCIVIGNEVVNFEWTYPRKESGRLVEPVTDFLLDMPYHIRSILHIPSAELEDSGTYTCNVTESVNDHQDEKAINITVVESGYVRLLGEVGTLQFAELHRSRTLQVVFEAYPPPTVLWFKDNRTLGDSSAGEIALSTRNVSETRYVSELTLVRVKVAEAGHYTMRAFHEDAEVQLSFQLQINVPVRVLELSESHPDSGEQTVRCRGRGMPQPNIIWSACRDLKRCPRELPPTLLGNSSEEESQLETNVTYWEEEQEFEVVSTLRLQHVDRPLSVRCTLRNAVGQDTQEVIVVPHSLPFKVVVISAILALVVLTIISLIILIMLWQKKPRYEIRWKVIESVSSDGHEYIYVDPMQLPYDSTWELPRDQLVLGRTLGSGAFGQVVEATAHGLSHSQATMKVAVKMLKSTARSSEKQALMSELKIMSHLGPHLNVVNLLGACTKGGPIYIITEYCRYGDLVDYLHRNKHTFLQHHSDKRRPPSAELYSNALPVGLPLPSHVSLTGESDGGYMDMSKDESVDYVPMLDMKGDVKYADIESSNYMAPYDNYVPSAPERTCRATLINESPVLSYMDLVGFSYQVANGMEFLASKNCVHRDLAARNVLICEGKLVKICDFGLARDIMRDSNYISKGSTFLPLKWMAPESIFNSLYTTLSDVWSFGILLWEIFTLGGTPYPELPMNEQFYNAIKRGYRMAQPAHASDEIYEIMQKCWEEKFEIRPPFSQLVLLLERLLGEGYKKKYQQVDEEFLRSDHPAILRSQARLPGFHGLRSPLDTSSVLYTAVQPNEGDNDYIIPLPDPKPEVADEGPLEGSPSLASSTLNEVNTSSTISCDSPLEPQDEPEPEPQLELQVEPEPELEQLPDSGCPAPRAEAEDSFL

[21] = target: PDGFRα (Homo sapiens, UniProt P16234); parameters: purchased Reaction Biology Corporation (Malvern, PA); method as in Lopez et al., 2013; details: at 1 µM, panel of 319 kinases; ref Lopez et al., 2013; cited from earlier work
Chain of PDGFRα (P16234 24-1089): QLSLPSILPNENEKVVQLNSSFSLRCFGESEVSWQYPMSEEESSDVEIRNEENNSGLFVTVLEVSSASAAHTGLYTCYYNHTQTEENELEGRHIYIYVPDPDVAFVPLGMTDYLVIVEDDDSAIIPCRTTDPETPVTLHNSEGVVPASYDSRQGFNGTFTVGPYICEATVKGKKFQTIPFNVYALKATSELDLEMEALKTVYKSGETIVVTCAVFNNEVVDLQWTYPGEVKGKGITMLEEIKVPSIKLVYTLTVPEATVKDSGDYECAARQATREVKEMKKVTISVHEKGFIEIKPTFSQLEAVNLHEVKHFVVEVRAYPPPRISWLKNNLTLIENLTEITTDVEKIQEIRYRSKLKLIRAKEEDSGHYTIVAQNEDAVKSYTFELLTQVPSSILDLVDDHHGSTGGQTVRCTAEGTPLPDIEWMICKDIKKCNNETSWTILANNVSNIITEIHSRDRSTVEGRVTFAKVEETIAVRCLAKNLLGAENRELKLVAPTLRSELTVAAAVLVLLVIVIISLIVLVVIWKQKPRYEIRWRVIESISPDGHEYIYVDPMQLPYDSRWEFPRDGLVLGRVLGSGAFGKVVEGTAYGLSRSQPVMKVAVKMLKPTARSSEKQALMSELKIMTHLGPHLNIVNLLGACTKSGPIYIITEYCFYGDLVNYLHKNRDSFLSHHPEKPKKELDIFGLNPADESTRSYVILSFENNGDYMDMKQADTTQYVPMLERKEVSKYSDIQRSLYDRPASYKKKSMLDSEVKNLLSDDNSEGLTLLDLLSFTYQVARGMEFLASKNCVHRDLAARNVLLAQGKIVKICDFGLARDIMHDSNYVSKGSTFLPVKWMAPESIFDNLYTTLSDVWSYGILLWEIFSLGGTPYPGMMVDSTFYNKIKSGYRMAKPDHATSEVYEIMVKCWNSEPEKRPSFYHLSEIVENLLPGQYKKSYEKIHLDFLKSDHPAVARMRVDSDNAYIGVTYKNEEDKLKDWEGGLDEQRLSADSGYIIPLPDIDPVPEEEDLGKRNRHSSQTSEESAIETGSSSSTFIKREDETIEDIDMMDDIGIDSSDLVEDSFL

[22] = target: T3, purified FLT3 WT (Homo sapiens, UniProt P36888); experiment: Radiolabeled purified kinase assay (Figure 1B)
T3 sequence (P36888 27-993): T2 sequence (P36888 27-993)

## CC(C)(C)c1cc(NC(=O)Nc2ccc(-c3cn4c(n3)sc3cc(OCCN5CCOCC5)ccc34)cc2)no1.Cl.Cl [AC220, N-(5-tert-Butyl-isoxazol-3-yl)-N'-{4-[7-(2-morpholin-4-yl-ethoxy)imidazo[2,1-b][1,3]benzothiazol-2-yl]phenyl}urea Dihydrochloride]
[1]
  CR rate: 50%
  CRi rate: 45%

## COc1cc2c(N3CCN(C(=O)Nc4ccc(OC(C)C)cc4)CC3)ncnc2cc1OCCCN1CCCCC1 [MLN518]
[2]
  IC50: 170 nM

## CO[C@@H]1[C@H](N(C)C(=O)c2ccccc2)C[C@H]2O[C@]1(C)n1c3ccccc3c3c4c(c5c6ccccc6n2c5c31)C(=O)NC4 [PKC412, N-benzoylstaurosporine, reference compound]
[3]
  IC50: 9 ± 6 nM
[4]
  p-KIT and downstream signaling inhibition in HMC1.1 cells: inhibited p-KIT and downstream signaling to a greater degree
[5]
  effect on mpo+ myeloid cells development in the PBI: statistically significant granulogenesis/myelosuppression; also recorded: statistically significant suppression of myelopoiesis
[6]; at 1,000 nM
  raw colony numbers, normal BM: zero in most PKC412-treated replicates
[6]; normal BM and SPB donors, up to 1,000 nM
  effect on normal hematopoietic colony formation (CFU and BFU): eliminates most normal hematopoietic colony forming potential at 1 mM; also recorded: dose-dependent inhibition of colony formation
[7]
  effect on zebrafish embryonic development / morphology: substantial morphological defects to the heart at 1 μM
[8]
  IC50: 243 ± 73 nM
[9]
  IC50: 9 ± 3 nM
[10]
  apoptosis/toxicity (caspase-3) in KIT-addicted HMC1.1 cells: potent toxicity
[11]
  IC50: 354 ± 60 nM
[12]
  effect on FLT3/ITD-induced mpo+ myeloid cells expansion: efficaciousness similar to Star 27
[13]
  raw colony numbers, FLT3-ITD+ blasts: ca. 20
[14]
  raw colony numbers, FLT3 D835Y blasts: ca. 25
[15]; combined with cytotoxic agents
  CR rate: 25%
  incomplete recovery of peripheral blood counts (CRi) rate: 20%
  patients developing grade 3/4 myelosuppression: over 90%
[15]; single agent Phase II trial
  complete remission (CR), single agent: failed to achieve a single complete remission
[16]
  IC50: 16 ± 5 nM

## CC(C)C[C@@H]1NC(=O)c2c1c1c3ccccc3n(CCCCN)c1c1[nH]c3ccccc3c21 [Star 12]
[17]
  inhibition of CSF1R: < 10%
[18]
  inhibition of FLT3: 57%
[19]
  inhibition of KIT: < 10%
[20]
  inhibition of PDGFRβ: < 10%
[21]
  inhibition of PDGFRα: < 10%
[22]
  IC50: 524 ± 94 nM
